These results are taken from US20030148954A1, “Agents and methods for modulating activator protein-1-mediated cellular processes” (Wisconsin Alumni Research Foundation, priority 2001, published 2003).

One assay concerns ERK1/2. In words: Western blot with phospho-specific antibodies, ERK1/2. To be noted: K562-NIC-1 versus K562-Babe, 5 nM TPA 30 min. The assay is classed as cell-based, human. As to the method: (§1) Stable Transfection—K562 cells were stably transfected by electroporation with a Bio-Rad Gene pulser electroporator. Cells (5×10^6) were washed with ice-cold PBS, resuspended in 0.5 ml of ice-cold PBS, mixed with 5 μg linearized plasmid DNA, and subjected to electroporation (960 microfarad; 220 V) in a 0.4 cm-wide electroporation cuvette (BTX). pBabe and pNIC-1 were linearized with NotI. Cells were then added to 20 ml of complete IMEM, grown for 48 h, and diluted in complete IMEM containing 1.5 μg/ml puromycin (pools of K562-Babe and K562-NIC-1 cells). Stably transfected cells were analyzed for erythroid differentiation as soon as the pools were generated by benzidine staining to reduce the probability of phenotypic changes that may result from prolonged growth.
(§2) To measure the phosphorylation state of components of the MAPK pathway, K562-Babe and K562-NIC-1 cells (1×10^6) were collected after treatment with 5 nM TPA or DMSO for 30 min. Cells were washed once with ice-cold PBS, cell pellets were resuspended in 30 μl ice-cold PBS and were immediately boiled in 70 μl SDS sample buffer for 10 min. Proteins (10 μl) were resolved by SDS-PAGE on a 10% acrylamide gel and transferred to Immobilon P membrane (Millipore). […] Antigen-antibody complexes were detected with ECL Plus™ (Amersham Life Science) according to manufacturer's instructions.
In general terms: In western blotting, separated proteins are transferred to a membrane and probed.

Another assay deals with JNK. The assay can be described thus: Western blot with phospho-specific antibodies, JNK. It counts as cell-based, human. To be noted: K562-NIC-1 versus K562-Babe, 5 nM TPA 30 min. As to the method: as §1, §2
The test system of the next assay is MMP1. The assay can be described thus: Northern blotting of MMP1 transcripts in K562-Babe and K562-NIC-1 cells. The assay is classed as cell-based, human. To be noted: 5 nM TPA 12 h, stably transfected NIC-1. How it is done: as §1
(§3) Northern Blotting—Total RNA from K562-Babe and K562-NIC-1 cells was extracted with Triazol (Life Technologies, Inc.). Ten μg of RNA per sample was electrophoresed on a 1% agarose, 6.6% formaldehyde gel and then transferred overnight to a Magnacharge nylon membrane (Osmonics). RNA was cross-linked to the membrane by UV irradiation. Membranes were prehybridized for 30 min at 60° C. in ExpressHyb hybridization solution (Clontech). […] Radioactivity was quantitated by PhosphorImager analysis with ImageQuant software (Molecular Dynamics).

Another assay concerns NF-κB. The assay can be described thus: NF-κB luciferase reporter (p3×κBluc), transient transfection of K562 cells. The assay is classed as cell-based, human. To be noted: TPA. The source says: Plasmids—The pBabe-NIC-1 (pNIC-1) expression vector encoding constitutively active Notch-1 (NIC-1) was described previously (36,37,51). This vector was derived from the pBabe-puro retroviral vector and includes a cDNA sequence encoding amino acids 1759-2556 of human Notch-1 with a Myc tag fused to its carboxyl terminus. Human NIC-1 deletion mutants were generated by PCR using a full-length human Notch-1 expression vector as the template. The Notch-dependent reporter plasmid containing four CBF1 binding sites and an simian virus 40 promoter fused to luciferase (p4×CBF1luc) was described previously (52). The AP-1 reporter plasmid (p1×AP1luc) containing a collagenase promoter fragment (−73/+67) with a single AP-1 binding site in the luciferase reporter vector pGL2-basic (Promega) was described previously (53). The NF-κB reporter plasmid (p3×κBluc) containing three NF-κB binding sites and a minimal promoter fused to luciferase was a kind gift of Dr. Shigeki Miyamoto (University of Wisconsin Medical School). […]
(§4) For each transfection, cells were incubated for 26 h after transfection and then treated with TPA (final concentration: 5 nM) or the vehicle (DMSO). […] Luciferase activity was normalized by the protein content of the lysates, determined by Bradford assay using γ-globulin as a standard.
A general note: Reporter assays use an easily measured gene product as a stand-in for the process of interest.

Another assay deals with CMV enhancer. The assay can be described thus: pCMVβgal β-galactosidase reporter, transient transfection of K562 cells. It counts as cell-based, human. As to the method:
(§5) Transient Transfections—K562 cells (5×10^5) were collected by centrifugation at 240×g for 8 min at 4° C. and resuspended in 4 ml of complete IMEM. Plasmid DNAs (1 μg of reporter and 2 μg of effector) were added to 150 μl of IMEM, incubated with Superfect (4 μl/1 μg DNA; Qiagen) for 10 min at room temperature and then added to cells.
as §4

Another assay concerns GAL4-c-Jun. In words: GAL4-c-Jun transactivation, transient assays in K562 cells. It counts as cell-based, human. To be noted: K562, data not presented.
A further assay deals with c-Fos. In words: Western blot of Fos protein. The assay is classed as cell-based, human. To be noted: K562-NIC-1 versus K562-Babe. How it is done:
as §1, §2

A further assay relates to human Aγ globin promoter. In words: pGL3γLuc reporter, transient transfection of K562 cells. It counts as cell-based. How it is done:
as §5
For each transfection, cells were incubated for 26 h after transfection and then treated with TPA (final concentration: 5 nM) or the vehicle (DMSO). After incubating for another 12 or 16 h, cells were harvested and assayed for luciferase activity. Luciferase activity was normalized by the protein content of the lysates, determined by Bradford assay using γ-globulin as a standard.

For a further assay, the system named is IL-8. The assay can be described thus: Northern blotting of IL-8 transcripts in K562-Babe and K562-NIC-1 cells. To be noted: 5 nM TPA 12 h, stably transfected NIC-1. It counts as cell-based, human. How it is done: as §1, §3

With “NIC-1: constitutively active Notch-1 intracellular domain, amino acids 1759-2556 of human Notch-1 with carboxyl-terminal Myc tag, expressed from pBabe-NIC-1”, in the assay with ERK1/2, the “basal and TPA-induced ERK1/2 phosphorylation” value was “slightly higher”. Further, the “effect on TPA-induced or basal phosphorylation of JNK” value in the assay with JNK is recorded as “did not affect”. In the assay with MMP1, the “TPA induction of MMP1 transcript levels in K562-NIC-1 versus K562-Babe cells” value was “considerably lower”. Besides, in the assay on NF-κB, the “effect on TPA-induced NF-κB-dependent reporter activity” value was “no effect”. Besides, the “increase of TPA induced activity of pCMVβgal” value in the assay with CMV enhancer (K562, TPA induced) is about 2 fold. In addition, the “effect on basal activity of pCMVβgal” value in the assay with CMV enhancer (K562, basal) is on record as “no effect”. In addition, in the assay on GAL4-c-Jun, the “inhibition of GAL4-c-Jun-mediated transactivation” value was “did not significantly inhibit”. The “effect on Fos protein levels” value in the assay on c-Fos is on record as “did not affect”. For the same substance, in the assay on human Aγ globin promoter (K562, TPA-induced), the “effect on TPA-induced activity of pGL3γLuc” value is “without affecting”. Moreover, the “increase of basal activity of pGL3γLuc” value in the assay on human Aγ globin promoter (K562, basal) is about 80%. Besides, the “TPA induction of IL-8 transcript levels in K562-NIC-1 versus K562-Babe cells” value in the assay with IL-8 is reported as “considerably lower”.
